In patent publication US8551963B2, “Imidazolothiazole compounds and methods of use thereof” (Ambit Biosciences Corporation, priority 2008, dated 2013):
“And” between values parts separate entries of the source, which are not always exact repeats. Identical values can stand only once. Like-named read-outs stand apart in the source and are kept apart here.

Legend:
CYP3A4 [1] = biological target: T1, CYP3A4 (Homo sapiens (Human), UniProt P08684); assay: Time dependant inhibition in human liver microsomes, CYP3A4; type: in vitro ADME; details: CYP3A4, 10 μM, pre-incubation 0-30 minutes
Protocol: (§1) For each CYP isoform tested, 10 μM Compound I-1 was pre-incubated with pooled male and female human liver microsomes with NADPH in a 37° C. shaking water bath in duplicate to afford a final pre-incubation assay concentration of 100 mM KPO4/pH 7.4, 10 mM MgCl2, 2 mg/mL of human liver microsome (CellzDirect lot HLM HMMC-PL020) and 1 mM NADPH (Calbiochem). At each pre-incubation time point (0, 5, 10, 20, and 30 minutes) 20 μL was removed and placed in a second 96 well plate on ice. After all pre-incubation time points were collected 180 uL of additional human microsome liver preparation containing the appropriate CYP specific substrate at its Km concentration listed in Table 11 plus NADPH, was added to each time point. The samples were incubated for an additional 10 minutes in a 37° C. shaking water bath and then quenched with 75:25 acetonitrile (ACN):water containing the appropriate internal standards listed in Table 11. After brief mixing, the plate was centrifuged and the supernatant removed for analysis by LC/MS/MS (API 4000 Qtrap) for the formation of 6-hydroxy-testosterone (CYP3A4), 4-hydroxy-mephenyloin (CYP2C19), or 6-hydroxy-taxol (CYP2C8). […] Consistent with Example 5, Compound I-1 did inhibit CYP2C8-mediated metabolite formation at 10 μM, but not in a time dependent manner.

CYP3A4 [2] = biological target: T1, CYP3A4; assay: Inhibitory constant KI in human liver microsomes, CYP3A4; type: in vitro ADME; details: CYP3A4, global non-linear regression
Protocol: A 2 mM stock of Compound I-1 was prepared in acetonitrile (ACN) and serially diluted 2-fold from 2000 μM to 15.63 μM in ACN. […] Individual human liver microsome preparations containing the substrate were then incubated with Compound I-1 (final concentration range 40 μM to 0.31 μM of Compound I-1) for a final incubation concentration of 0.5 mg/mL microsome, 75 mM KPO4, 6.5 mM MgCl2, 1 mM NADPH and 2% acetonitrile (ACN). The samples were incubated in a 37° C. shaking water bath for 20 minutes then quenched with ACN:water (75:25) containing internal standards propranolol at 0.3 ng/mL and cortisone at 0.3 ng/mL. After brief mixing, the plate was centrifuged and the supernate removed for analysis by LC/MS/MS (API 4000 Qtrap) for formation of 6-hydroxy-testosterone (CYP3A4), 4-hydroxy-mephenyloin (CYP2C19) or hydroxy-taxol (CYP2C8). The data was analyzed using global non-linear regression software (GraphPad Prism) and the overall fit of the data (R^2) was used to determine if Compound I-1 was a competitive, non-competitive, or uncompetitive inhibitor. In addition the data was plotted as a Lineweaver-Burke graph (1/V versus 1/S, where V is the […] and S is the substrate concentration) for each inhibitor concentration. Based on the location of convergence (competitive and non-competitive) or non convergence (uncompetitive) of the plots at each inhibitor concentration, the type of inhibition was determined.
Global non-linear regression allows analysis of all the individual inhibitor curves simultaneously and determines the best fit value for shared parameters between the data sets, in this case KI (or KI′). The results of the global nonlinear analysis of Compound I-1 inhibition of the CYP450 isoforms 3A4, 2C19 and 2C8 are shown in Table 12.

[3] = Pharmacokinetic study in rats, intravenous and oral; type: in vivo; details: rat
Protocol: Rats were dosed either intravenously at 1 mg/kg dose or orally at 10 mg/kg dose with Compound I-1. Blood samples were collected over a 24 hour time-course. The plasma was analyzed for Compound I-1 and the pharmacokinetic parameters were determined.
Pre-catheterized (jugular vein), male Sprague-Dawley rats (230-300 g) obtained from Charles River, Hollister, Calif., were acclimated at the vivarium of Rabbit and Rodent Diagnostic Associates (San Diego, Calif.) for at least three days following delivery and prior to entering a study. Rats were fasted overnight before intravenous or oral dosing. For intravenous dosing, Compound I-1 was dissolved in a 3:1 PEG400:H2O (Water For Injection) solution and administered at a dose of 1 mg/kg. For oral dosing, Compound I-1 was dissolved in a 22% hydroxypropyl-β-cyclodextrin (HPBCD) solution and administered at a dose of 10 mg/kg. Blood was collected at 5 (IV only), 15, 30 min, 1, 2, 4, 6, and 24 hr postdose using K3EDTA as anticoagulant and plasma was harvested for the analysis of Compound I-1.
Plasma samples, calibration standards and quality control samples (20 μL) were extracted with six volumes of acetonitrile containing an internal standard (25 ng/mL) and analyzed using LC-MS/MS analysis (API 3200). Sample separation was achieved on a Zorbax SB C8 column (5 μm, 4.6×50 mm) at a flow rate of 1.6 mL/min. The gradient program was from 5-95% acetonitrile in 0.05% formic acid over one minute. The mass transition from m/z 577.18 to 421.10 was monitored for Compound I-1. The internal standard mass transitions monitored were 483.0 to 317.2.
Pharmacokinetic parameters of Compound I-1 were calculated based on the plasma concentration-time profiles of each animal using the noncompartmental models in WinNonlin v5.2 (Pharsight, Mountain View, Calif.).

FLT3 (ITD) = FLT3 (ITD) (Homo sapiens, UniProt P36888, ITD); assay: biochemical; type: binding
Protocol: Competition binding assays used herein were developed, validated and performed as described in Fabian et al., Nature Biotechnology 2005, 23, 329-336. Kinases were produced as fusions to T7 phage (See, Fabian et al. or WO04/015142) or alternatively, the kinases were expressed in HEK-293 cells and subsequently tagged with DNA for PCR detection (See, WO08/005,310). […] The liganded beads were blocked with excess biotin and washed with blocking buffer (SeaBlock (Pierce), 1% BSA, 0.05% Tween 20, 1 mM DTT) to remove unbound ligand and to reduce non-specific binding. […] Test compounds were prepared as 100× stocks in DMSO and rapidly diluted into the aqueous environment. DMSO was added to control assays lacking a test compound. […] The kinase concentration in the eluates was measured by quantitative PCR. Each kinase was tested individually against each compound. Kds were determined using eleven serial threefold dilutions.

MDR1-MDCK cells = assay: Bidirectional MDR1-MDCK permeability, Compound I-1 as a substrate; details: 5 μM, Surf.
Protocol: (§2) MDR1-MDCK cells were grown to confluence for 5-10 days on 1 μm filters in 24-well plate. Aliquots of DMSO solute stocks were diluted into Hank's balanced salt solution (HBSS) pH 7.4 containing 25 mM HEPES+−0.05% PS80 to give 0.5, 1.5 or 5.0 μM solute concentrations. Final concentrations of DMSO in the assayed samples ranged from 0.005% for the 0.5 μM concentration to 0.05% for the 5 μM concentration. […] The solute containing donor solutions were transferred to either the apical or basolateral chamber of the permeability diffusion apparatus. Receiver solutions consisted of Hank's balanced salt solution (HBSS) pH 7.4 containing 25 mM HEPES+0.05% PS80. The entire receiver solution was removed at 20 minute intervals and manually replaced with fresh buffer. The concentration of transported solute during each sampling interval was determined by HPLC/UV/MS. The standard curve was produced from serial dilutions of the dosing solution. D0 was a 50 μl aliquot of dosing solution from the donor well diluted with 450 μl of HBSS. The standard curve was produced from serial dilutions of the dosing solution (1:10, 1:25, 1:50, 1:100, 1:500 and 1:1000). Permeability coefficients were calculated for each sampling interval using the following equation:
(§3) [formula] Where VD=volume of donor (0.4 ml for Ap_Bl flux and 1.0 ml for Bl_Ap flux), A=surface area of the filter on which the monolayer was grown (0.31 cm2), MD(0)=mass in the donor at the beginning of the ith sampling interval, MR (t)=mass in the receiver at time t, and _t is the experimental interval (20 minutes). The apparent permeability, Papp, is then calculated as the average:
(§4) The average and standard deviation from the intervals is reported. Mass balance in the system was ascertained by comparing the sum of total transported solute and remaining donor solute with the starting mass of solute and is expressed as a percentage of donor solute at time zero. […] At the termination of the experiment, the cell monolayers are stored in the cold until the data is analyzed. After analysis, if mass balance falls below 70% in a given experiment, those monolayers are retrieved and extracted with acetonitrile. After separation of cellular debris, the extract is analyzed for recoverable solute of interest. […] All determinations were performed in duplicate.

P-glycoprotein (MDR1) = assay: as above; details: dog, Surf.
Protocol: as §2, §3, §4

CYP2C8 = CYP2C8 (Homo sapiens (Human), UniProt P10632); assay: Time dependant inhibition in human liver microsomes, CYP2C8; type: in vitro ADME
Protocol: as §1

[4] = male, Sprague-Dawley, plasma, intravenous, 1 mg/kg
[5] = male, Sprague-Dawley, plasma, oral, 10 mg/kg

T1 sequence (P08684 whole entry, canonical isoform): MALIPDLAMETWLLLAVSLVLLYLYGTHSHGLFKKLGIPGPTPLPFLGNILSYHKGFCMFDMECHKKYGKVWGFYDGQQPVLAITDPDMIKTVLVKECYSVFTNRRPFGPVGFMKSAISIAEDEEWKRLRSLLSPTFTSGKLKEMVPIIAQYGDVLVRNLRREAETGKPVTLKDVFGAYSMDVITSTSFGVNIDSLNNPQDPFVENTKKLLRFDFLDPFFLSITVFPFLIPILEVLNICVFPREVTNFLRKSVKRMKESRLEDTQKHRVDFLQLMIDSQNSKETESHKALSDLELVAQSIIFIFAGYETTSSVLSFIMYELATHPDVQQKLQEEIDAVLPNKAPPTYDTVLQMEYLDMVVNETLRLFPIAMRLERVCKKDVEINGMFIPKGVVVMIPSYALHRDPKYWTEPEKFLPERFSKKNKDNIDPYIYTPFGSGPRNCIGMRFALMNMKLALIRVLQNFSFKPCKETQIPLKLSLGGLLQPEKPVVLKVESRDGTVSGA
CYP2C8, sequence (P10632 whole entry): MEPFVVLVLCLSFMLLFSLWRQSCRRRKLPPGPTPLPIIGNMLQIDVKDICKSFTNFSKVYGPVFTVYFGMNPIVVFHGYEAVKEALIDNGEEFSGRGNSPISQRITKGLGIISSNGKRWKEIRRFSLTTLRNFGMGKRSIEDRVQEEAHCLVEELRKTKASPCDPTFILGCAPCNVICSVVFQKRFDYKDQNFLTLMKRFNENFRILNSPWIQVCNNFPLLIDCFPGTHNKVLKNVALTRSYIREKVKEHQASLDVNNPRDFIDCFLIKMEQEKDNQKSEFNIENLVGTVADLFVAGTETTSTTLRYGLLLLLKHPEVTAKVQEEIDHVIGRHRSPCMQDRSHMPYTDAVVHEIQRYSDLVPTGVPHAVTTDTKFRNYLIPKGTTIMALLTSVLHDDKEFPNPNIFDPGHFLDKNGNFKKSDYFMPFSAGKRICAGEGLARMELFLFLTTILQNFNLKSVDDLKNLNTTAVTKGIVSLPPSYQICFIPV
FLT3 (ITD), sequence (P36888 whole entry, looked up, change not shown): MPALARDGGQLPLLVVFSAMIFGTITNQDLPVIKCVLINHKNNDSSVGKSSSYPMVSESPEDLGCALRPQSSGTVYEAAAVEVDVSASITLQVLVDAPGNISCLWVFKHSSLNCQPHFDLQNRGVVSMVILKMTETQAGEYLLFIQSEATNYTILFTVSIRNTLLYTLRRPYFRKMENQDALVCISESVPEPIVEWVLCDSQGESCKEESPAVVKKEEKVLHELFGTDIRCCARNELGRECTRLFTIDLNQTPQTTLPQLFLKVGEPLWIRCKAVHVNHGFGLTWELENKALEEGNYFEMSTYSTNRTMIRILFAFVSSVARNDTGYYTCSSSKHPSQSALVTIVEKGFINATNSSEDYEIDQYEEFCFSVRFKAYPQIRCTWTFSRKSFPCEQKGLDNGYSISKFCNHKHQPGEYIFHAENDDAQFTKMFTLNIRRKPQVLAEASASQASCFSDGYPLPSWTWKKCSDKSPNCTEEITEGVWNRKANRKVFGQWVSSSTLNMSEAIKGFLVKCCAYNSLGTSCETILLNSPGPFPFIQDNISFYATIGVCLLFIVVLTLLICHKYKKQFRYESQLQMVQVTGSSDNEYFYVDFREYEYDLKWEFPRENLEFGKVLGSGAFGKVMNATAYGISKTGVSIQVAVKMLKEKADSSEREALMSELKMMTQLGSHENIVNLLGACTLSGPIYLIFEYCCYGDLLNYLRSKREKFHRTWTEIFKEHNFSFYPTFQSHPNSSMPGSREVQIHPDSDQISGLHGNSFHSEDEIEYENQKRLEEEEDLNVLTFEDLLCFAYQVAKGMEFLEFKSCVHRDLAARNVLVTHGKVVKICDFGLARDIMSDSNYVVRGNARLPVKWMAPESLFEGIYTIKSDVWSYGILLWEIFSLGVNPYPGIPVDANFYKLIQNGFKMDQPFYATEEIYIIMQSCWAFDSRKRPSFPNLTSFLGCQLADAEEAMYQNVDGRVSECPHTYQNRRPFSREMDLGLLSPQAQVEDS

**Q.** Which Time dependant inhibition (CYP3A4 [1]) does the source give for `CC(C)(CO)c1cc(NC(=O)Nc2ccc(-c3cn4c(n3)sc3cc(OCCN5CCOCC5)ccc34)cc2)no1` [Compound I-1, 1-[5-(2-hydroxy-1,1-dimethyl-ethyl)-isoxazol-3-yl]-3-{4-[7-(2-morpholin-4-yl-ethoxy)-benzo[d]imidazo[2,1-b]thiazol-2-yl]-phenyl}-urea] here?
**A.** Its Time dependant inhibition is “not a time dependant inhibitor”.

**Q.** What about the Ki (CYP3A4 [2]; read-out: Best Fit KI, Competitive) of the same molecule?
**A.** Its Ki is 13.1 µM.

**Q.** What about the Ki (CYP3A4 [2]; read-out: Best Fit KI, Non-competitive) of the same molecule?
**A.** The Ki was 48.9 µM.

**Q.** What about the Ki (CYP3A4 [2]; read-out: Best Fit KI′, Uncompetitive) of the same molecule?
**A.** The Ki was 36 µM.

**Q.** What about the AUC(0-inf) [3, 4] of the same molecule?
**A.** The AUC(0-inf) was 3.29 µM·h.

**Q.** What about the Vd [3, 4] of the same molecule?
**A.** Its Vd is 1.34 L/kg.

**Q.** What about the clearance [3, 4] of the same molecule?
**A.** The clearance was 8.83 mL/min/kg.

**Q.** And the half-life [3, 4]?
**A.** The half-life was 3.4 h.

**Q.** And the AUC(0-inf) [3, 5]?
**A.** Its AUC(0-inf) is 2.27 µM·h.

**Q.** And the Cmax [3, 5]?
**A.** Its Cmax is 360 nM.

**Q.** And the Tmax [3, 5]?
**A.** The Tmax was 1.2 h.

**Q.** And the half-life [3, 5]?
**A.** Its half-life is 3.7 h.

**Q.** What about the bioavailability ([3]; male, Sprague-Dawley, plasma, oral, 10 mg/kg, calculated with the dose normalized AUC0-inf IV data, read-out: F (absolute bioavailability)) of the same molecule?
**A.** Its bioavailability is 6.9%.

**Q.** And the T1/2 ([3]; intravenous, 1 mg/kg)?
**A.** Its T1/2 is 3.4 h.

**Q.** And the Kd (FLT3 (ITD))?
**A.** Its Kd is 0.0088 µM.

**Q.** What about the “Assymetry Index” value (MDR1-MDCK cells) of the same molecule?
**A.** Its value is 1.7.

**Q.** What about the PeAP→BL (MDR1-MDCK cells) of the same molecule?
**A.** The PeAP→BL was 2.81 ×10⁻⁶ cm/s.

**Q.** What about the PeBL→AP (MDR1-MDCK cells) of the same molecule?
**A.** The PeBL→AP was 6.31 ×10⁻⁶ cm/s and 4.67 ×10⁻⁶ cm/s.

**Q.** What about the efflux ratio at 5 μM (P-glycoprotein (MDR1); MDCK-MDR1, pH 7.4, Assymetry Index) of the same molecule?
**A.** Its efflux ratio at 5 μM is 1.2.

**Q.** And the Papp A→B at 5 μM (P-glycoprotein (MDR1); MDCK-MDR1, pH 7.4, PeAP→BL)?
**A.** Its Papp A→B at 5 μM is 5.1 ×10⁻⁶ cm/s.

**Q.** What about the “Inhibition of CYP2C8-mediated metabolite formation” value (CYP2C8; 10 μM) of the same molecule?
**A.** Its value is “did inhibit”.

**Q.** What about the Time dependant inhibition (CYP2C8; CYP2C8, 10 μM, pre-incubation 0-30 minutes) of the same molecule?
**A.** Its Time dependant inhibition is “not a time dependant inhibitor”.
